From ChEMBL document CHEMBL1201862, “PubChem BioAssay data set” (2004)
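Interpolation was linear, between the two tested concentrations surrounding the appropriate level; five concentrations were tested over 48 hours in 96-well plates. GI50 is the concentration that inhibits growth by half.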 Calls of active or inactive are those of the source. Rule as the data show it: active = GI50 up to about 1.1 µM and inactive = higher.

Key:
Experiment in all cases: DTP human tumour cell line panel, 48 h
CCRF-CEM = system: CCRF-CEM
COLO 205 = system: COLO 205
EKVX = system: EKVX
HCT-116 = system: HCT-116
HOP-62 = system: HOP-62
K562 = system: K562
KM12 = system: KM12
M14 = system: M14
MOLT-4 = system: MOLT-4
NCI-H226 = system: NCI-H226
RXF 393 = system: RXF 393
SF-268 = system: SF-268
SF-539 = system: SF-539
SK-OV-3 = system: SK-OV-3
SNB-75 = system: SNB-75
TK-10 = system: TK-10
HCT-15 = system: HCT-15
OVCAR-4 = system: OVCAR-4

Row | SMILES | GI50 (CCRF-CEM) | GI50 (COLO 205) | GI50 (EKVX) | GI50 (HCT-116) | GI50 (HOP-62) | GI50 (K562) | GI50 (KM12) | GI50 (M14) | GI50 (MOLT-4) | GI50 (NCI-H226) | GI50 (RXF 393) | GI50 (SF-268) | GI50 (SF-539) | GI50 (SK-OV-3) | GI50 (SNB-75) | GI50 (TK-10) | GI50 (HCT-15) [µM] | GI50 (OVCAR-4)
1 | C/C(CC(=O)Nc1cccc([N+](=O)[O-])c1)=N\NC(=O)CC#N | > 100 µM (inactive) | > 100 µM (inactive) | > 100 µM (inactive) | > 100 µM (inactive) | > 100 µM (inactive) | > 100 µM (inactive) | > 100 µM (inactive) | > 100 µM (inactive) | > 100 µM (inactive) | > 100 µM (inactive) | > 100 µM (inactive) | > 100 µM (inactive) | > 100 µM (inactive) | > 100 µM (inactive) | > 100 µM (inactive) | > 100 µM (inactive) |  | 
2 | CN(c1ccccc1)c1nc(=[N+]2CCCC2)ss1.[O-][Cl+3]([O-])([O-])[O-] | > 100 µM (inactive) | 11.1 µM (inactive) | > 100 µM (inactive) | > 100 µM (inactive) |  | 74.5 µM (inactive) | > 100 µM (inactive) | > 100 µM (inactive) | > 100 µM (inactive) | > 100 µM (inactive) | 3.03 µM (inactive) | > 100 µM (inactive) |  | > 100 µM (inactive) | > 100 µM (inactive) | > 100 µM (inactive) | 87.7 | > 100 µM (inactive)
3 | CC(=O)c1c2c(cc3c1CC1(C3)Cc3cc4c(c(C(=O)O)c3C1)CCC4)CCC2 (centres undefined) | 27.7 µM (inactive) | 24.7 µM (inactive) |  | 24.9 µM (inactive) | 36.5 µM (inactive) | 32.6 µM (inactive) | 44.2 µM (inactive) | 41.2 µM (inactive) | 25.9 µM (inactive) |  | 45.5 µM (inactive) | 36.8 µM (inactive) | 19.2 µM (inactive) |  | 69.8 µM (inactive) | 42.3 µM (inactive) |  | 49.1 µM (inactive)
4 | COC(=O)C1(c2ccc(OC)cc2)NC(c2ccccc2)C2C(=O)N(c3ccc(OC)cc3)C(=O)C21 (centres undefined) | > 100 µM (inactive) | > 100 µM (inactive) | > 100 µM (inactive) |  |  | > 100 µM (inactive) | > 100 µM (inactive) | > 100 µM (inactive) | > 100 µM (inactive) |  | > 100 µM (inactive) | > 100 µM (inactive) | > 100 µM (inactive) | > 100 µM (inactive) | > 100 µM (inactive) | > 100 µM (inactive) | > 100 | > 100 µM (inactive)
5 | Clc1ccc(Cl)c2[s+]snc12 | 50.8 µM (inactive) | > 43.1 µM (inactive) | > 100 µM (inactive) | 21.6 µM (inactive) | > 85.3 µM (inactive) | > 45.8 µM (inactive) | > 67.5 µM (inactive) | 55.6 µM (inactive) | > 79.6 µM (inactive) | > 100 µM (inactive) |  | 46.8 µM (inactive) | 46 µM (inactive) | > 100 µM (inactive) | 41.2 µM (inactive) | > 100 µM (inactive) | 29.4 | > 100 µM (inactive)
6 | COC1(OC)CC2C(=O)N(Cc3ccccc3)C1C(S(=O)(=O)c1ccccc1)C2C(C)S(=O)(=O)c1ccccc1 (centres undefined) | > 100 µM (inactive) | > 100 µM (inactive) | 85.5 µM (inactive) | > 100 µM (inactive) | > 100 µM (inactive) | > 100 µM (inactive) | > 100 µM (inactive) | > 100 µM (inactive) | > 100 µM (inactive) |  | > 100 µM (inactive) | > 100 µM (inactive) | > 100 µM (inactive) | > 100 µM (inactive) |  | > 100 µM (inactive) | > 100 | > 100 µM (inactive)
7 | O=C(Cc1nc2ccc(C(=O)c3ccccc3)cc2nc1O)C(=O)Nc1ccc(C(F)(F)F)cc1[N+](=O)[O-] | 27.3 µM (inactive) | 45 µM (inactive) | 11.7 µM (inactive) | 96.2 µM (inactive) | 91.8 µM (inactive) | 27.6 µM (inactive) | 59 µM (inactive) | > 100 µM (inactive) | 22.8 µM (inactive) | 87.1 µM (inactive) |  | 65 µM (inactive) | 53.3 µM (inactive) | > 100 µM (inactive) | 45.9 µM (inactive) | > 100 µM (inactive) | > 100 | > 100 µM (inactive)
8 | N#CC1=C(c2ccccc2)NNC(c2ccc(Cl)cc2)CC1=O (centres undefined) |  |  |  | 49.3 µM (inactive) | 23.3 µM (inactive) |  | 38 µM (inactive) | 25.6 µM (inactive) | 58.7 µM (inactive) | 0.165 µM (active) | 54.2 µM (inactive) | 50.8 µM (inactive) |  | 44.4 µM (inactive) | 14.8 µM (inactive) | > 100 µM (inactive) | 26.2 | 42.9 µM (inactive)
9 | C/C(=N/Nc1ccc([N+](=O)[O-])cc1[N+](=O)[O-])C(CC(C(=O)NCc1ccccc1)/C(C)=N\Nc1ccc([N+](=O)[O-])cc1[N+](=O)[O-])C(=O)NCc1ccccc1 (centres undefined) |  | 13.5 µM (inactive) | 12.7 µM (inactive) | 4.88 µM (inactive) | 3.88 µM (inactive) |  | 4.86 µM (inactive) | 8.04 µM (inactive) |  | 11.2 µM (inactive) | 4.24 µM (inactive) | 4.42 µM (inactive) | 4.06 µM (inactive) | 15.6 µM (inactive) | 2.96 µM (inactive) |  | 10.3 | 2.4 µM (inactive)
10 | O=C1CCCCCCCCCCC1CN1CCCCC1 (centres undefined) | 66.8 µM (inactive) | 41.4 µM (inactive) | > 100 µM (inactive) | 58.6 µM (inactive) | > 100 µM (inactive) | 94.4 µM (inactive) | 71.1 µM (inactive) | > 10 µM (inactive) | 57 µM (inactive) | 28.2 µM (inactive) |  | > 100 µM (inactive) |  |  | 39.1 µM (inactive) | 38.4 µM (inactive) | 59.8 | > 100 µM (inactive)
11 | c1ccc2c(c1)[nH]c1c2ncc2[nH]c3ccccc3c21 | 3.03 µM (inactive) | 2.45 µM (inactive) | 12.9 µM (inactive) | 1.77 µM (inactive) | 4.31 µM (inactive) | 2.55 µM (inactive) | 3.06 µM (inactive) | 2.75 µM (inactive) | 3.05 µM (inactive) | 14 µM (inactive) |  | 6.32 µM (inactive) | 2.61 µM (inactive) | 14.1 µM (inactive) | 3.52 µM (inactive) | 7.33 µM (inactive) | 2.25 | 1.9 µM (inactive)
12 | Cc1ccccc1NC(=O)C1C(=O)N(c2ccccc2C)C(=O)/C1=N\NC(N)=S (centres undefined) | > 100 µM (inactive) |  | > 100 µM (inactive) | > 100 µM (inactive) |  | > 100 µM (inactive) | > 100 µM (inactive) | > 100 µM (inactive) | > 100 µM (inactive) | > 100 µM (inactive) |  | > 100 µM (inactive) | > 100 µM (inactive) | > 100 µM (inactive) | > 100 µM (inactive) | > 100 µM (inactive) |  | 
13 | COc1ccc(-c2nc(Sc3c([N+](=O)[O-])ncn3C)n[nH]2)cc1 | 2.89 µM (inactive) | 1.82 µM (inactive) | 20.7 µM (inactive) | 2.81 µM (inactive) | 19.1 µM (inactive) | 2.99 µM (inactive) | 1.99 µM (inactive) | 2.17 µM (inactive) | 2.85 µM (inactive) | 13.4 µM (inactive) | 1.77 µM (inactive) | 3.94 µM (inactive) | 1.87 µM (inactive) | 4.17 µM (inactive) | 4.92 µM (inactive) | 6.17 µM (inactive) |  | 8.24 µM (inactive)
14 | O=S1(=O)C[C@@H](O)[C@H](O)CS1 |  | > 100 µM (inactive) | > 100 µM (inactive) | > 100 µM (inactive) | > 100 µM (inactive) | > 100 µM (inactive) | > 100 µM (inactive) | > 100 µM (inactive) | > 100 µM (inactive) | > 100 µM (inactive) | > 100 µM (inactive) | > 100 µM (inactive) | > 100 µM (inactive) | > 100 µM (inactive) | > 100 µM (inactive) | > 100 µM (inactive) |  | > 100 µM (inactive)
15 | COc1cccc(/C=C2\C(=O)N(C(=O)c3ccc(NC(C)=O)cc3)N=C2C)c1 | > 100 µM (inactive) | > 100 µM (inactive) | > 100 µM (inactive) | > 100 µM (inactive) | > 100 µM (inactive) | > 100 µM (inactive) |  | > 100 µM (inactive) | > 100 µM (inactive) | > 100 µM (inactive) |  | > 100 µM (inactive) | > 100 µM (inactive) |  | > 100 µM (inactive) | > 100 µM (inactive) | > 100 | > 100 µM (inactive)
16 | OC12CCC3(O)c4ccccc4C3C1c1ccccc12 (centres undefined) | > 100 µM (inactive) | > 100 µM (inactive) | > 100 µM (inactive) | > 100 µM (inactive) | > 100 µM (inactive) | > 100 µM (inactive) | > 100 µM (inactive) | > 100 µM (inactive) | > 100 µM (inactive) | > 100 µM (inactive) | > 100 µM (inactive) | > 100 µM (inactive) |  | > 100 µM (inactive) | > 100 µM (inactive) | > 100 µM (inactive) | > 100 | > 100 µM (inactive)
17 | O=C1CN=C(c2ccccc2)c2ccncc2N1 | > 100 µM (inactive) | > 100 µM (inactive) | > 100 µM (inactive) | > 100 µM (inactive) | > 100 µM (inactive) | > 100 µM (inactive) | 16.2 µM (inactive) | > 100 µM (inactive) | > 100 µM (inactive) | > 100 µM (inactive) | > 100 µM (inactive) | > 100 µM (inactive) | > 100 µM (inactive) | > 100 µM (inactive) | > 100 µM (inactive) | 33.3 µM (inactive) |  | > 100 µM (inactive)
18 | O=C1N[C@@H]2C(=C[C@H](O)[C@@H](O)[C@H]2O)c2cc3c(c(O)c21)OCO3 [NARCICLASINE] | 0.045 µM (active) |  | 0.045 µM (active) | 0.045 µM (active) | 0.045 µM (active) | 0.045 µM (active) | 0.045 µM (active) |  | 0.045 µM (active) | 0.045 µM (active) |  | 0.045 µM (active) | 0.045 µM (active) | 0.045 µM (active) | 0.045 µM (active) |  | 0.045 | 0.142 µM (active)
